In ChEMBL document CHEMBL3784917, “Recent Progress in Histone Demethylase Inhibitors” (J Med Chem, 2016):
Blank lines part the entries; values can stand above or below the compound they belong to.

Key:
[1] = molecular target: T1, Lysine-specific histone demethylase 1A (Homo sapiens, UniProt O60341); assay: Inhibition of human recombinant KDM1A using H3 (1 to 21 residues)-K4me2 peptide substrate by fluorescence coupling enzyme assay
[2] = molecular target: T2, Amine oxidase [flavin-containing] B (Homo sapiens, UniProt P27338)
T2 sequence (P27338 whole entry): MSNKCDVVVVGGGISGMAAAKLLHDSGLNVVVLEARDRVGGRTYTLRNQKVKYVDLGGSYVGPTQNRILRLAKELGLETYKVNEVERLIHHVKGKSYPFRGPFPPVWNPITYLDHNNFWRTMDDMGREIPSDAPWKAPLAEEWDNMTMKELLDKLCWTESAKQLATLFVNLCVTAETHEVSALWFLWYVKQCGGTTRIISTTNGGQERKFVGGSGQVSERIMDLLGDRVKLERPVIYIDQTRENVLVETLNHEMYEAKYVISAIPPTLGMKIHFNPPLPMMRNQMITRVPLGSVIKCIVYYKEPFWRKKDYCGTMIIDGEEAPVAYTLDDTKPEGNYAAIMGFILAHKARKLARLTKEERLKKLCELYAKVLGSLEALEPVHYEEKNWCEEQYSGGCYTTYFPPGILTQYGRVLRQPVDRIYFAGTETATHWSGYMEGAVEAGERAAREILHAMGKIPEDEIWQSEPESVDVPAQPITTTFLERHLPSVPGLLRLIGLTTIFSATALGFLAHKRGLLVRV

[3] = molecular target: T1, Lysine-specific histone demethylase 1A; assay: biochemical
[4] = molecular target: T3, Amine oxidase [flavin-containing] A (Homo sapiens, UniProt P21397); assay: Inhibition of MAO-A (unknown origin) preincubated for 10 mins followed by substrate addition measured after 60 mins by MAO-Glo assay
T3 sequence (P21397 whole entry): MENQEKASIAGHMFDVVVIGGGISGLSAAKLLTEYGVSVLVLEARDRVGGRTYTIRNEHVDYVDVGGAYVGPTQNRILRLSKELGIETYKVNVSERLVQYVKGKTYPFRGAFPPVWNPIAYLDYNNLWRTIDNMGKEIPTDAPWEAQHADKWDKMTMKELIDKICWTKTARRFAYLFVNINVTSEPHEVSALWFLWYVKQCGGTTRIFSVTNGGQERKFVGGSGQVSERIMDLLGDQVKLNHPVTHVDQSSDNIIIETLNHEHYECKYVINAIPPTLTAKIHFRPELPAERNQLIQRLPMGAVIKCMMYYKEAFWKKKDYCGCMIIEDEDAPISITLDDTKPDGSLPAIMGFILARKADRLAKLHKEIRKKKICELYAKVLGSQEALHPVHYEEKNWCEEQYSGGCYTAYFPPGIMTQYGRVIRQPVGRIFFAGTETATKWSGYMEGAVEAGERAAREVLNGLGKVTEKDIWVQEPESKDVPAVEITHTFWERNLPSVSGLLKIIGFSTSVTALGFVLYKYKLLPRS

[5] = system: LNCaP; assay: Antiproliferative activity against human LNCAP cells assessed as reduction in cell viability by MTT assay; type: functional, cell-based
[6] = molecular target: T4, Lysine-specific demethylase 4C (Homo sapiens, UniProt Q9H3R0); assay: Inhibition of KDM4C (1 to 350 residues) (unknown origin) expressed in Escherichia coli using […] as substrate
T4 sequence (Q9H3R0 whole entry): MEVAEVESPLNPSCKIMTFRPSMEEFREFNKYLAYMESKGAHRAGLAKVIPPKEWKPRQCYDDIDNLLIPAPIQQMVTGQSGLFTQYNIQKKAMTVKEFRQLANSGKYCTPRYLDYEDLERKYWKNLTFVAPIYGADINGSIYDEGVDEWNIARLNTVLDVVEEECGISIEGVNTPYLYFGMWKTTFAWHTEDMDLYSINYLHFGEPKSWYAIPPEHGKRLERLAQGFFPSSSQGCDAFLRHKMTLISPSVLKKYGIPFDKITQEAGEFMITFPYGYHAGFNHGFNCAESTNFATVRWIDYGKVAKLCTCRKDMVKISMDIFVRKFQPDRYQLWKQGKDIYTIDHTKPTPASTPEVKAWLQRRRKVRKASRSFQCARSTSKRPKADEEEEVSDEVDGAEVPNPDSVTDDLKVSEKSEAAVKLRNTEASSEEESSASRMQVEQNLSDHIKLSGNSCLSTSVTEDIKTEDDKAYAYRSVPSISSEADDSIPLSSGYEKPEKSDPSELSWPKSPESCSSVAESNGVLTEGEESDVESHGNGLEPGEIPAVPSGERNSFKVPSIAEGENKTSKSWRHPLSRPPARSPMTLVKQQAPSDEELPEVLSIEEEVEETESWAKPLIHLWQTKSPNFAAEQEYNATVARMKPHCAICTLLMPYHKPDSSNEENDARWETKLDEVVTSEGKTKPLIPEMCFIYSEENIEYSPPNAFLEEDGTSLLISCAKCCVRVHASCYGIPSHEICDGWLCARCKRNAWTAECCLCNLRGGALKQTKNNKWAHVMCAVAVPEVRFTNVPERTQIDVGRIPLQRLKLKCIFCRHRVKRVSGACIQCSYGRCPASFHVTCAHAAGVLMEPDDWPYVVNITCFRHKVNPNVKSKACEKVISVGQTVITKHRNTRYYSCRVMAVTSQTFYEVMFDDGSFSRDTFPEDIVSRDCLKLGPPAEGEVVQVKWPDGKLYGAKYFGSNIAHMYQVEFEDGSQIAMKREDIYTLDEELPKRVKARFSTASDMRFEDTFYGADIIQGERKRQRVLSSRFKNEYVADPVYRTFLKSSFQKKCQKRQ

[7] = molecular target: T5, Lysine-specific demethylase 4A (Homo sapiens, UniProt O75164)
T5 sequence (O75164 whole entry): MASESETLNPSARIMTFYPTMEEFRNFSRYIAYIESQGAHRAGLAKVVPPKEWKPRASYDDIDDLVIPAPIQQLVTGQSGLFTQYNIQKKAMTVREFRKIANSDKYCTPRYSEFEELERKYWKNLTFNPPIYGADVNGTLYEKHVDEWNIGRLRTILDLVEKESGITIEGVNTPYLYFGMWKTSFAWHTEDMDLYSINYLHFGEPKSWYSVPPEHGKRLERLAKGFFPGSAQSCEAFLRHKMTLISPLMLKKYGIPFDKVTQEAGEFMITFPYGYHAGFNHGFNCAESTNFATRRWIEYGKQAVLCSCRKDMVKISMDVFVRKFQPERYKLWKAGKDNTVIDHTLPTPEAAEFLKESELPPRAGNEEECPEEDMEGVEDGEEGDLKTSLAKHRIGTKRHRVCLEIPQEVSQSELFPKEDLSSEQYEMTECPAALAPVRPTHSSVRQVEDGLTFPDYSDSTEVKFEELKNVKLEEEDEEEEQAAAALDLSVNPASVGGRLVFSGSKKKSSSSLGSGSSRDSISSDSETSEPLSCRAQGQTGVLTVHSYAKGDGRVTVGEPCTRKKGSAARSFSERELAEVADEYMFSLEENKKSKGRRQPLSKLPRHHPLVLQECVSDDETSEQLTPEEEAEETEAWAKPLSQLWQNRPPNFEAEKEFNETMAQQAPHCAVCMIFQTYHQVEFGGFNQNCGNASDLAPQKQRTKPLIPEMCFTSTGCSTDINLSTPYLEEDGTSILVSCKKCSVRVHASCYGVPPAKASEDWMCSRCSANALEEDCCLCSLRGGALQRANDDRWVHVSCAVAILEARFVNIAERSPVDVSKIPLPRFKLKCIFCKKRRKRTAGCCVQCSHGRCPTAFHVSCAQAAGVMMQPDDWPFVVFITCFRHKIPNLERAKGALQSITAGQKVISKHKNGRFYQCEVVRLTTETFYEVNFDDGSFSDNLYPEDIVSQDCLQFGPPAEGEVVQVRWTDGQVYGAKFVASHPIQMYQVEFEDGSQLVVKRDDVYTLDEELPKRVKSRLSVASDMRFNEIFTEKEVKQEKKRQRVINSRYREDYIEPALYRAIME

[8] = molecular target: T6, Lysine-specific demethylase 4B (Homo sapiens, UniProt O94953); assay: biochemical
T6 sequence (O94953 whole entry): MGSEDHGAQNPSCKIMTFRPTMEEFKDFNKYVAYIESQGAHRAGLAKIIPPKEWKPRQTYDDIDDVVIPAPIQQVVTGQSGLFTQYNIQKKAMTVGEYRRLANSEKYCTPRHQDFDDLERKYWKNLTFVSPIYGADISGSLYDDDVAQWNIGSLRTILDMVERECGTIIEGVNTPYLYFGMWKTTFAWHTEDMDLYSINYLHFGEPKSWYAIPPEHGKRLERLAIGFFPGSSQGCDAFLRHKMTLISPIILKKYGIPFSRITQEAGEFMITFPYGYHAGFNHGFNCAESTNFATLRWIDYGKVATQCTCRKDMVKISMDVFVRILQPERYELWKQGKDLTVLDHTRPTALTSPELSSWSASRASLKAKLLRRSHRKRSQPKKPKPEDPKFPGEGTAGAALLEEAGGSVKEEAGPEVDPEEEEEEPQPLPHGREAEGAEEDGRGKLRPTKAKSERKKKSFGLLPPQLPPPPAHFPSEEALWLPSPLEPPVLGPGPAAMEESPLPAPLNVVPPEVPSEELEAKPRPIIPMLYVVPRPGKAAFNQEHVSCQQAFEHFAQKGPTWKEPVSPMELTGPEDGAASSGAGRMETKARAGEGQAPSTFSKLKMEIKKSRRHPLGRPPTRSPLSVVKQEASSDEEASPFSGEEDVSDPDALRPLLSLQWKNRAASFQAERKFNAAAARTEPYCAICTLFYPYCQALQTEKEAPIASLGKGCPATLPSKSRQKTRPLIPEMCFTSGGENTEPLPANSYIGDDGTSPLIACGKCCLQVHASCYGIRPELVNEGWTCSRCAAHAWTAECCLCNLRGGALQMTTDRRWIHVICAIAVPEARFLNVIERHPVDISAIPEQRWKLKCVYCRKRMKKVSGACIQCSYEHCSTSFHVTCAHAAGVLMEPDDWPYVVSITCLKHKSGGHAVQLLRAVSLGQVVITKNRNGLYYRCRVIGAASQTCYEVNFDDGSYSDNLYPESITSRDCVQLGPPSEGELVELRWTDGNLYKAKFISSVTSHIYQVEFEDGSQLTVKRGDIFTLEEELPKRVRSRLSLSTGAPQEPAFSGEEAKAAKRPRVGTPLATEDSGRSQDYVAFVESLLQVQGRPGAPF

[9] = Antiproliferative activity against human VCaP cells assessed as reduction in cell viability by MTT assay; type: functional, cell-based
[10] = Antiproliferative activity against human PC3 cells assessed as reduction in cell viability by MTT assay; type: functional, cell-based; conditions: PC-3
[11] = molecular target: Lysine-specific demethylase 5A (Homo sapiens, UniProt P29375)
[12] = molecular target: T3, Amine oxidase [flavin-containing] A; assay: Inhibition of human recombinant MAO-A expressed in Pichia pastoris preincubated for 15 mins followed by substrate addition measured after 30 mins by MAO-Glo assay
[13] = molecular target: T2, Amine oxidase [flavin-containing] B; assay: Inhibition of human recombinant MAO-B expressed in Pichia pastoris preincubated for 15 mins followed by substrate addition measured after 30 mins by MAO-Glo assay
[14] = molecular target: T1, Lysine-specific histone demethylase 1A; assay: Inhibition of human recombinant KDM1A expressed in Escherichia coli using H3K4me peptide substrate preincubated for 15 mins followed substrate addition measured after 12 mins by peroxidase coupled enzyme assay
[15] = molecular target: T1, Lysine-specific histone demethylase 1A; assay: Inhibition of full length human KDM1A expressed in Escherichia coli using biotin-H3K4me1 as substrate incubated for 1 hr by TR-FRET assay
[16] = molecular target: T1, Lysine-specific histone demethylase 1A; assay: Inhibition of KDM1A in human THP1 cells assessed as inhibition of CD11b expressing cells incubated for 4 days by DAPI staining based flow cytometry; type: cell-based, THP-1
[17] = system: HeLa; assay: Antiproliferative activity against human HeLa cells assessed as reduction in cell viability after 72 hrs by MTT assay; type: functional, cell-based
[18] = molecular target: T1, Lysine-specific histone demethylase 1A
[19] = system: MDA-MB-231; assay: Antiproliferative activity against human MDA-MB-231 cells assessed as reduction in cell viability after 72 hrs by MTT assay; type: functional, cell-based; conditions: MDA-MB-231, 72 h
[20] = molecular target: T2, Amine oxidase [flavin-containing] B; assay: Inhibition of MAO-B (unknown origin) using MAO substrate incubated for 1 hr by MAO-Glo assay
[21] = molecular target: T3, Amine oxidase [flavin-containing] A; assay: Inhibition of MAO-A (unknown origin) using MAO substrate incubated for 1 hr by MAO-Glo assay
[22] = molecular target: T1, Lysine-specific histone demethylase 1A; assay: Inhibition of recombinant human N-terminal GST-tagged KDM1A expressed in Escherichia coli using H3K4me2 as substrate preincubated for 15 mins followed by substrate addition measured after 1 hr by peroxidase coupled enzyme assay
[23] = molecular target: T3, Amine oxidase [flavin-containing] A; assay: Inhibition of human recombinant MAO-A using 3-(2-Aminophenyl)-3-oxopropanamine as substrate preincubated for 15 mins followed by substrate addition measured after 1 hr by fluorescence microplate reader analysis
[24] = molecular target: T2, Amine oxidase [flavin-containing] B; assay: Inhibition of human recombinant MAO-B using 3-(2-Aminophenyl)-3-oxopropanamine as substrate preincubated for 15 mins followed by substrate addition measured after 1 hr by fluorescence microplate reader analysis

Chain of Lysine-specific demethylase 5A (P29375 whole entry): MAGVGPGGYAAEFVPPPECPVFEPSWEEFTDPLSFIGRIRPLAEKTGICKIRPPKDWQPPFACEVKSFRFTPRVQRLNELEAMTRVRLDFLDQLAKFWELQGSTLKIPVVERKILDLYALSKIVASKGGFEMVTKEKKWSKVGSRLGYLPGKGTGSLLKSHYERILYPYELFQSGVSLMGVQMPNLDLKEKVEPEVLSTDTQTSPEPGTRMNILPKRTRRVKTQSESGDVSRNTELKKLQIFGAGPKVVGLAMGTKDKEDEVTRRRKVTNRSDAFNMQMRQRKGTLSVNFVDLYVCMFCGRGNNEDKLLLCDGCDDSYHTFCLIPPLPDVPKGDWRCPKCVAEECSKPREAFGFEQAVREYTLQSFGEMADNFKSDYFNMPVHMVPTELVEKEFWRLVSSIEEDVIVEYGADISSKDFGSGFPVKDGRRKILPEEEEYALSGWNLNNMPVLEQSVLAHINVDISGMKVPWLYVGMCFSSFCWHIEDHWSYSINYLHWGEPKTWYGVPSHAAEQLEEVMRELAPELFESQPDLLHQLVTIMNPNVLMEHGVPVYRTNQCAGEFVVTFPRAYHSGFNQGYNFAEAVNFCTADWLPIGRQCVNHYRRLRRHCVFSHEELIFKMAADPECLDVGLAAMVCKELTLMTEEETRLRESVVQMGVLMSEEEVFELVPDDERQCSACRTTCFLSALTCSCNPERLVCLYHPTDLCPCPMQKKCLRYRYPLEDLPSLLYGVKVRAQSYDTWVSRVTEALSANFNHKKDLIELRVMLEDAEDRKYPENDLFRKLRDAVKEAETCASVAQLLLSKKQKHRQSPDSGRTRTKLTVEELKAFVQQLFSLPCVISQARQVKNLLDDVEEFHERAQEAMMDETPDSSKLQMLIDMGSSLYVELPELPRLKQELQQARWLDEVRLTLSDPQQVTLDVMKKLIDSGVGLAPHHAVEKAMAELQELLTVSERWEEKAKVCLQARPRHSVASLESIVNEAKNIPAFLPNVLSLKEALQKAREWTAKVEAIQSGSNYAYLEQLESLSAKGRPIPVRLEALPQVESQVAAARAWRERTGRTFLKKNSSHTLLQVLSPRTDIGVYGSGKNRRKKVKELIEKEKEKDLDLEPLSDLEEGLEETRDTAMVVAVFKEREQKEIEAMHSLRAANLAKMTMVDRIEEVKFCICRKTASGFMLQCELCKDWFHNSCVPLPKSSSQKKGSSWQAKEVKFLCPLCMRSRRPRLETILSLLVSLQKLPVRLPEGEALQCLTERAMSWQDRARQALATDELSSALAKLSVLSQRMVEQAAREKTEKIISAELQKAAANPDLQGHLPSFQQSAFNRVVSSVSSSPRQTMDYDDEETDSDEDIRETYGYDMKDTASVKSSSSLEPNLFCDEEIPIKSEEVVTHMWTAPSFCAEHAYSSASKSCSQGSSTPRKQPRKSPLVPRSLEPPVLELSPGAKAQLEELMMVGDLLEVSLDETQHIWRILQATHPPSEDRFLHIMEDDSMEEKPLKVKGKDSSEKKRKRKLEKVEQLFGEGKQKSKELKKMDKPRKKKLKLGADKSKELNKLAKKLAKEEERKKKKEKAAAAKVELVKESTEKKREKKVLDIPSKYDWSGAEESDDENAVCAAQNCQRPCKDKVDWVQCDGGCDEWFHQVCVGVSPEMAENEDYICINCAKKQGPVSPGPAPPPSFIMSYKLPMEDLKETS

Structure (SMILES): CN1CCN(c2ccc(C(=O)Nc3ccc([C@@H]4C[C@]4(N)CCc4ccccc4)cc3)cc2)CC1 (racemic)
- IC50 [12]: > 10 µM
- IC50 [13]: > 10 µM
- IC50 [14]: < 0.1 µM

Structure (SMILES): Cc1ccc(-c2cnc(NC[C@H]3CCNC3)nc2-c2ccc(C#N)cc2)cc1
- IC50 [15]: < 0.01 µM
- IC50 [16]: < 0.01 µM

Structure (SMILES): CSCCc1nc(-c2cc(N)ccc2Cl)oc1C
- IC50 [17]: 0.0012 µM
- IC50 [18]: 10.1 µM
- IC50 [19]: 0.0012 µM

Structure (SMILES): O=C(N[C@@H](CCCCN[C@@H]1C[C@H]1c1ccccc1)C(=O)NCc1cccc(Cl)c1)c1ccc(-c2ccccc2)cc1
- IC50 [20]: > 100 µM
- IC50 [21]: > 100 µM

The next lines start with results.

- IC50 [1]: < 1 µM
Structure (SMILES): O=C(N[C@@H](CCCCN[C@@H]1C[C@H]1c1ccc(F)cc1)C(=O)NCc1ccc(F)cc1)c1ccccc1

- IC50 [2]: > 10 µM
- IC50 [3]: < 1 µM
- IC50 [4]: > 10 µM
Structure (SMILES): Cc1ncc(NC(=O)c2cccc([C@@H]3C[C@H]3NC3CCOCC3)c2)s1 (racemic)

- IC50 [5]: < 1 µM
- IC50 [6]: < 1 µM
- IC50 [7]: < 1 µM
- IC50 [8]: 0.01 µM
- IC50 [11]: > 10 µM
Structure (SMILES): O=C(NCCCc1ccccc1)c1cccc(-c2cc(O)c3ncccc3c2)c1
- IC50 [9]: < 1 µM
- IC50 [10]: 0.04 µM

- IC50 [22]: 0.07 µM
- IC50 [23]: > 1 µM
- IC50 [24]: > 10 µM
Structure (SMILES): CC(C)S(=O)(=O)Nc1cccc(-c2ccc([C@H]3C[C@@H]3N)cc2)c1
